Converted amounts (≈) assume the structure as drawn. “And” between values parts separate entries of the source, which are not always exact repeats. Identical values can stand only once.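 Where inhibition never reached the appropriate level, the endpoint shown equals the highest concentration tested. Otherwise, values were interpolated linearly from a five-concentration, 48-hour dose response in 96-well plates. GI50 marks 50% less growth. At the TGI there is no net growth.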

Assay in all cases: NCI tumour cell line growth inhibition, 48 h
Assay [1] deals with HL-60(TB) leukemia.
Assay [2] concerns K-562 leukemia.
The test system of assay [3] is SK-MEL-2 melanoma.
The test system of assay [4] is KM12 colon.
Assay [5] concerns SK-OV-3 ovarian.
For assay [6], the system named is U251 CNS.
Assay [7] relates to MOLT-4 leukemia.
Assay [8] has as its system OVCAR-8 ovarian.
In assay [9] the test system is OVCAR-4 ovarian.

For the molecule `CCN(CC)CCOc1ccc(C(=C2CCCCC2)c2ccc(OCCN(CC)CC)cc2)cc1`, the TGI in assay [1] is 2.56 µM; in assay [2] it was 1.02 µM; in [3], 3.52 µM; in assay [4], 2.57 µM; in [5], 3.52 µM; in [6] it was 3.1 µM. For the same molecule, the TGI was found to be 2.59 µM in assay [7], 3.13 µM in assay [8] and 4.77 µM in assay [9].
In the case of `C[C@@H]1OC(=O)/C(=C\N(C)C)[C@H]2CC(=O)N(CCc3cn(S(=O)(=O)C(F)(F)F)c4ccccc34)C[C@H]12`, the TGI in assay [2], in [3], in assay [4], in [5], in assay [6] and in assay [7] was more than 100 µM each time. Moreover, the TGI in assay [9] is more than 100 µM.
As to `CC1OC(OC2CC(O)(C(=O)CO)Cc3c(O)c4c(c(O)c32)C(=O)c2ccccc2C4=O)CC(N)C1O` (centres undefined), the TGI in [1] is less than 0.0173 µM; in [2] it was 9.2 µM; in assay [4], 4.59 µM; in assay [5] it was 0.142 µM; in [6], 0.188 µM; in [7], less than 0.0819 µM. Further, the TGI came out at 12.4 µM in assay [8] and 3.15 µM in [9].
For `CCN(CC)C1=Nc2ccccc2-n2c(C)cnc2C1`, the TGI in assay [1], in assay [2], in [3], in [4], in assay [5] and in assay [6] was more than 100 µM in each case. Moreover, the TGI in assay [7], in [8] and in assay [9] was more than 100 µM each time.
With `Cc1ccc(C2=C(c3ccccc3)C(O)(c3ccc(C)cc3)C(c3ccccc3)=C2c2ccc(C)cc2)cc1`, the TGI in assay [1], in [2], in assay [3], in assay [4], in assay [5] and in [6] was more than 100 µM throughout. The TGI in [7], in assay [8] and in assay [9] was more than 100 µM throughout.
`Cc1cc2[nH]c3c(C#N)c(-c4ccccc4)c(CN4CCOCC4)c(=O)n3c2cc1C`: the TGI in [3], in assay [4], in assay [5], in assay [6], in assay [8] and in assay [9] was more than 100 µM in each case.
For the molecule `CC(=O)NC(CCCCNC(=O)N(C)N=O)C(=O)NCc1ccccc1` (centres undefined), the TGI in assay [2], in [3], in [4], in assay [5], in [6] and in assay [7] was more than 100 µM in each case. For the same molecule, the TGI in assay [8] and in assay [9] was more than 100 µM throughout.
As to `NC(N)=Nc1nc2ccccc2[nH]1`, the GI50 is 3.87 µg/mL in assay [1]; 27.6 µg/mL in assay [2]; 95 µg/mL (≈ 542 µM) in [3]; 53.1 µg/mL (≈ 303 µM) in [4]; 150 µg/mL (≈ 856 µM) in [5]; 55.3 µg/mL in [6]. The GI50 is 5.03 µg/mL in [7], 76.5 µg/mL in [8] and 22.1 µg/mL (≈ 126 µM) in assay [9]. The TGI is 17.2 µg/mL in [1]; more than 150 µg/mL in assay [2]; more than 150 µg/mL in [3]; more than 150 µg/mL in [4]; more than 150 µg/mL in assay [5]; more than 150 µg/mL in assay [6]. Moreover, the figures for the TGI in assay [7], in assay [8] and in [9] were 37.3 µg/mL, more than 150 µg/mL and 55.5 µg/mL, respectively.
For `O=c1[nH]c(=O)n(C2CC(O)C(CO)O2)cc1C#Cc1cc(F)cc(F)c1` (centres undefined), the TGI in assay [2], in assay [3], in [4], in [5], in [6] and in [7] was more than 100 µM throughout. Moreover, the TGI in assay [8] and in [9] was more than 100 µM in each case.
For `CC(NC(=O)C(N)CC(=O)O)NC(=O)N1CCCC1` (centres undefined), the TGI in [2], in assay [3], in [4], in assay [5], in [6] and in assay [7] was more than 100 µM throughout. Also, the TGI in [8] and in [9] was more than 100 µM each time.
In the case of `CCn1cnc2c(NC(C)=O)ncnc21`, the TGI in [2], in [3], in [4], in assay [5], in [6] and in [7] was more than 100 µM throughout. The TGI in assay [8] and in assay [9] was more than 100 µM each time.
On to `O=C(N/C(=C\c1ccccc1)C1Nc2ccccc2C(=O)O1)c1ccccc1` (centres undefined), for which the TGI in assay [1] is 36.1 µM; in [2], 51.9 µM; in [3], 62 µM; in [4], 31.2 µM; in assay [5] it was more than 100 µM; in [6], 51.2 µM. Further, the TGI in assay [7] was 45.1 µM; in assay [8], 51.1 µM; in assay [9] it was more than 100 µM.
With `COc1cc([C@@H]2c3cc4c(c(O)c3C[C@H]3COC(=O)[C@@H]32)OCO4)cc(OC)c1O`, the GI50 in assay [1] was 2.41 nM; in assay [2] it was 3.12 nM; in assay [6] it was 2.28 nM and < 20 nM; in [7], 3.84 nM and 27.4 nM; in assay [8], 5.3 nM. Moreover, the TGI is 0.0066 µM in assay [1]; more than 50.2 µM in assay [2]; 6.56 µM in [3]; more than 200 µM in [4]; 0.00608 µM and < 0.02 µM in assay [6]; 0.0374 µM in assay [7]. Also, the TGI in assay [8] and in assay [9] was more than 200 µM throughout.
With `CSc1ccc2c(cc1=O)[C@@H](NC(=O)c1ccc(F)cc1)CCc1cc(O)c(O)c(O)c1-2`, the TGI in [1], in [2], in assay [3], in [4], in assay [5] and in [6] was more than 100 µM in each case. For the same molecule, the TGI in assay [7], in assay [8] and in [9] was more than 100 µM throughout.
On to `COc1cc(OC)nc(Nc2c(C#N)c3nc4ccccc4n3c3ccccc23)n1`, for which the TGI in [1] is more than 100 µM; in [2], more than 100 µM; in assay [3] it was 71.1 µM; in [4], more than 100 µM; in assay [5], more than 100 µM; in [6] it was more than 100 µM. In addition, the TGI in [7] is more than 100 µM; in assay [8] it was more than 100 µM; in assay [9] it was 78.7 µM.
Regarding `COc1cccc(-n2c(N)c(-c3nc4cc(C(F)(F)F)ccc4s3)c3ccc([N+](=O)[O-])cc3c2=O)c1`, the TGI in [2], in assay [3], in assay [4], in assay [5], in assay [6] and in assay [7] was more than 100 µM each time. Also, in assay [9], the TGI was more than 100 µM.
Consider `COc1ccc(-c2nnc(CCCCCCCCc3nnc(-c4ccc(OC)cc4)o3)o2)cc1`, for which the TGI in assay [1], in assay [2], in [3], in assay [4], in assay [5] and in assay [6] was more than 100 µM throughout. The TGI in assay [7], in assay [8] and in assay [9] was more than 100 µM throughout.
Take `CCCCOC(=O)C1CN2C(=NC1(C(F)(F)F)C(F)(F)F)Sc1ccccc12` (centres undefined): the TGI in assay [1] is 68.9 µM; in assay [2], more than 100 µM; in assay [3] it was more than 100 µM; in [4], more than 100 µM; in assay [5], more than 100 µM; in [6], more than 100 µM. Also, the figures for the TGI in assay [7], in assay [8] and in [9] were 84.6 µM, more than 100 µM and more than 100 µM, respectively.
Consider `Cc1c2cccc-2c(OCCO)cc2c1[nH]c1ccccc12`, for which the TGI in assay [1] was more than 19.9 µM; in [2], more than 24.3 µM; in [3], 12 µM; in assay [4], 7.04 µM; in [5], 14.4 µM; in assay [6], 3.78 µM. In addition, the results for the TGI in assay [7], in [8] and in assay [9] were 20.1 µM, 15.7 µM and 13.5 µM, respectively.
Turning to `CC(C)=CCC[C@H](C)[C@H]1CC[C@@H](C)c2cc(O)c(C)cc21`, the TGI in assay [1] came out at 41.7 µM; in [2], 46.8 µM; in assay [3], 32.4 µM; in [4], 37.5 µM; in assay [5] it was 35.4 µM; in assay [6], 31.1 µM. Further, the TGI in [7] amounted to 51 µM; in [8] it was 35.6 µM; in [9] it was 31.5 µM.
As for `C/C(=N/N)c1ccc2[nH]c3c(C)cc([N+](=O)[O-])c(C)c3c2c1`, the TGI in assay [1] is more than 100 µM; in assay [2], 40.7 µM; in assay [3] it was 26.3 µM; in [7] it was 19.8 µM; in assay [8], 26.5 µM; in assay [9] it was 38.3 µM.
For `N#CC(c1cc(Cl)ncn1)c1nc2ccccc2s1` (centres undefined), the TGI was more than 100 µM in [2]; more than 100 µM in assay [4]; 28.8 µM in assay [5]; 18.2 µM in assay [6]; more than 100 µM in [7]; 12.5 µM in assay [8]. Moreover, the TGI in assay [9] amounted to 91 µM.
